Measured values taken from patent US20080318943A1, “Compounds and Uses Thereof - 848” (ASTRAZENECA AB, priority 2007, published 2008).

Tests used:
[1] = molecular target: T1, GABAA receptor α1β2γ2 (Homo sapiens, UniProt P14867+P18507); experiment: Two-electrode voltage-clamp potentiation of GABA EC10 current in Xenopus oocytes, GABAA1; assay type: cell-based; settings: percentage potentiation of GABA EC10 current divided by that of diazepam
T1 construct: expressed in transfected cells; host or cells: Xenopus laevis oocytes injected with cRNA
T1 sequence (P14867 28-456): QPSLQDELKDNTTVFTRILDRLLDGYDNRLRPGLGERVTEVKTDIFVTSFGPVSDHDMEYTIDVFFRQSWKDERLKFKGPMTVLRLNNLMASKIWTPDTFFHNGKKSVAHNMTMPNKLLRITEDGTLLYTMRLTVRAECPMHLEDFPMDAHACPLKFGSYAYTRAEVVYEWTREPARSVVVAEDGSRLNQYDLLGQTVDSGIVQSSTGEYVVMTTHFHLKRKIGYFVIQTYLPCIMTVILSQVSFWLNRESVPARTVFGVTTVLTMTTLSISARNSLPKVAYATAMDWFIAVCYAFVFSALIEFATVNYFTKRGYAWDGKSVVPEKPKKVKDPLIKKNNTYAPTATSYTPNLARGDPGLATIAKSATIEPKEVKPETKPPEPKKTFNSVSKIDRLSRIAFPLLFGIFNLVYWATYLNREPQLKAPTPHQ
T1 sequence (P47870 25-512 partner limits assumed): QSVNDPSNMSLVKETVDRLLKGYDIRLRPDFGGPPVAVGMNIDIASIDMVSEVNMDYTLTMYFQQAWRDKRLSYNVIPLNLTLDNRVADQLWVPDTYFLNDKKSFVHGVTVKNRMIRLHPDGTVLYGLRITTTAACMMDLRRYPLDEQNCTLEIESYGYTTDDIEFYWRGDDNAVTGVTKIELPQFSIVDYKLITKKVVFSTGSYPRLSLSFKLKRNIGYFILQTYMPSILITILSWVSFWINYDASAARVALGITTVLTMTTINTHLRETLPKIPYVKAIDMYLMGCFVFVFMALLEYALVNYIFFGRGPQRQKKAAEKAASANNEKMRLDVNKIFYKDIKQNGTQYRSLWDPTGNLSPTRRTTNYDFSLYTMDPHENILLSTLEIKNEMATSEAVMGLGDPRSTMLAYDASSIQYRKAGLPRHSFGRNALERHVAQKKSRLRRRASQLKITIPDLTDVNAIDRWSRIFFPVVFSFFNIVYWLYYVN
T1 sequence (P18507 40-475): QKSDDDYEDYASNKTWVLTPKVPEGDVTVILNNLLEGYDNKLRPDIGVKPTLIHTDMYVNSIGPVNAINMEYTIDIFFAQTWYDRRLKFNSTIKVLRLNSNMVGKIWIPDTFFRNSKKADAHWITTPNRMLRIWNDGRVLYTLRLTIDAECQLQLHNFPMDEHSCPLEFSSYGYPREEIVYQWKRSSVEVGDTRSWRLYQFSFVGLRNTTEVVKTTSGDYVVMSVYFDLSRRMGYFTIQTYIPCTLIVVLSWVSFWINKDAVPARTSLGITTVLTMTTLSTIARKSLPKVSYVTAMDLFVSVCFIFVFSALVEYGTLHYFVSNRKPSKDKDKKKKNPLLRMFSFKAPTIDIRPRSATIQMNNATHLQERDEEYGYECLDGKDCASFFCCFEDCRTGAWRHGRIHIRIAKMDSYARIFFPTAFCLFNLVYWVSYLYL
Experimental: GABAA receptors were heterologously expressed in Xenopus oocytes by injecting cRNA corresponding to human α1, α2, α3, α5, β2, P3 and γ2 subunits of the GABAA receptor genes. The specific subunit combinations (subtypes) were as follows: α1β2γ2, α2β3γ2, α3β3γ2, and α5β3γ2. The EC10 of GABA is approximated for each cell. Stability of GABA-mediated (EC10) current is established. Modulatory effect of test compound is determined and compared across subtypes. […] Thus, the assay can characterize modulatory effects and determine subtype selectivity of test compounds on major subtypes of GABAA receptors.
Xenopus laevis frogs (Xenopus I, Kalamazoo, Mich.) were anesthetized using 0.15% tricaine. Surgically removed ovarian lobes were teased out in OR2 solution (82 NaCl, 2.5 KCl, 5 HEPES, 1.5 NaH2PO4, 1 MgCl2, 0.1 EDTA, in mM, pH 7.4). The oocytes were defolliculated by incubation in 25 mL OR2 containing 0.2% collagenase 1A (SIGMA) two times for about 60 minutes on a platform shaker and stored in Leibovitz's L-15 medium. Oocytes were injected the following day in 0.5× Leibovitz's L-15 medium containing […] gentamycin, 10 units/ml penicillin, and […] streptomycin.
Capped cRNAs from the linearized vectors containing human α1, β2 and γ2 subunits of the GABAA receptor genes were mixed in ratio of […]. Oocytes were injected with 25-50 nL of mixed RNA with an appx molar ratio for α1, β2, and γ2 as 1:1:10. Oocyte recordings were done 2-10 days after injection. The same methods apply to subtypes derived from α2β3γ2, α3β3γ2, and α5β3γ2, except for 1:1:1 ratio was used for α, β, and γ subunits.
All measurements were done in a medium containing ND-96 (96 NaCl, 2 KCl, 1.8 CaCl2.2H2O, 1 MgCl2.6H2O, 5 HEPES, in mM, pH 7.5). Two-electrode voltage-clamp recording was carried out using OpusXpress amplifier (Axon Instruments, Foster City, Calif.), which allows simultaneous recording from 8 oocytes. Oocytes were impaled with two electrodes of 1-2 MΩ tip resistance when filled with 3M KCl. Recordings were begun when membrane potential became stable at potentials negative to −50-−60 mV. Membrane potential was held at −60 mV. […] The concentration of GABA corresponded to the EC10 value calculated for each oocyte. The modulator pulses started 30 s before the GABA pulse so as to allow preincubation with the modulator. A set of 3 pulses with just GABA without modulator was given prior to the modulator-containing pulses to define the baseline GABA response. Two oocytes per each experiment were dedicated to observe the effect of diazepam on GABA response to ensure the presence of γ2 subunit in the GABAA pentameric complex, which imparts diazepam sensitivity to the complex.
Current amplitude (i) was measured from baseline to peak using Clampfit (Axon Inst., Foster City, Calif.). Potentiation was calculated as percent change from the baseline GABA current flux 100×(imod/icontrol)−1) where imod=current mediated by modulator+GABA and icontrol=current mediated by GABA alone. […] Similarly, a value of −50% potentiation means the presence of modulator caused a 50% decrease in the control current. Various other data shown here were fitted and plotted using GraphPad Prism (GraphPad Software, Inc. San Diego, Calif.). The percentage potentiation was converted to relative potentiation by dividing it with percentage potentiation value obtained from the same assay with diazepam as a control.

[2] = molecular target: T2, GABAA2 receptors (α2, β3, γ2 receptor subunits transfected into Sf9 cells) (Homo sapiens, UniProt P18507+P47869); experiment: GABAA2 Binding Method ([3H]-Flunitrazepam displacement); settings: [3H]-Flunitrazepam ~2 nM, α2β3γ2 Sf9 membranes, 1 hr at 4° C.
T2 construct: host or cells: Sf9 cells (membranes)
T2 sequence (P47869 29-451): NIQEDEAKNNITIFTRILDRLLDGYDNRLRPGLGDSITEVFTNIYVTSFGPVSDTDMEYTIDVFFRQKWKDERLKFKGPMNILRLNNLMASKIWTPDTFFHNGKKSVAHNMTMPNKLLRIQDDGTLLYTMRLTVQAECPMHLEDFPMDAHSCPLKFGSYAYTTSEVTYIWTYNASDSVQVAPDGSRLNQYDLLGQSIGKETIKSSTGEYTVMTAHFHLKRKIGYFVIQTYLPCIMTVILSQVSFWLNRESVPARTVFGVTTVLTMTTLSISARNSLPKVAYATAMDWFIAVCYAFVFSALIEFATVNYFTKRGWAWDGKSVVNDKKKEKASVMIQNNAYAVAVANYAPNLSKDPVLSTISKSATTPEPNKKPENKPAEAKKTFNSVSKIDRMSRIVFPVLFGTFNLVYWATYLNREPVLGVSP
T2 sequence (P28472 26-473 partner): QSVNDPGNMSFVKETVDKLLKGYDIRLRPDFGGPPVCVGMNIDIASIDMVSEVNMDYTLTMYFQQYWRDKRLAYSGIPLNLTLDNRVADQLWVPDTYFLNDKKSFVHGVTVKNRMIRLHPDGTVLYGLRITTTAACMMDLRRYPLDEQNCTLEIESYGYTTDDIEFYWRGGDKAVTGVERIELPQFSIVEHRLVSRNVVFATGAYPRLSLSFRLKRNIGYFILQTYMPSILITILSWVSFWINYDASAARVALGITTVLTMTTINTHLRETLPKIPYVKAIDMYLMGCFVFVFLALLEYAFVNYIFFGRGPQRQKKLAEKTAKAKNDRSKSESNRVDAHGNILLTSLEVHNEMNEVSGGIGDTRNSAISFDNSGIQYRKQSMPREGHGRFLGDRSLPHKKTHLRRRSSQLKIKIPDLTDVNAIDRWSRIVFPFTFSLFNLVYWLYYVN
T2 sequence (P18507 40-475): as the sequence (P18507 40-475) above
How it was run: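 Displacement of [3H]-flunitrazepam (~2 nM in assay) from recombinant human α2β3γ2 receptors in Sf9 membranes; 1 h incubation at 4 °C, harvest by filtration. Values reported as percent of control, IC50 and Ki.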

Row | Relative Potentiation for GABAA1 [1] | Ki [2] [µM] | SMILES
1 | 0.4 | 0.00787 | Cc1ccc(-c2cccc3c(N)c4c(nc23)CN(C2CC2)C4=O)c(Cl)n1 [9-amino-5-(2-chloro-6-methylpyridin-3-yl)-2-cyclopropyl-2,3-dihydro-1H-pyrrolo[3,4-b]quinolin-1-one]
2 | 0.35 | 0.00482 | CCCN1Cc2nc3c(-c4ccccc4Cl)cccc3c(N)c2C1=O [9-amino-5-(2-chlorophenyl)-2-propyl-2,3-dihydro-1H-pyrrolo[3,4-b]quinolin-1-one]
3 | 0.36 | 0.00803 | COc1ccc(CN2Cc3nc4c(-c5cccc(OC)c5F)cccc4c(N)c3C2=O)cc1 [9-amino-5-(2-fluoro-3-methoxyphenyl)-2-(4-methoxybenzyl)-2,3-dihydro-1H-pyrrolo[3,4-b]quinolin-1-one]
4 | 0.2 | 0.0115 | CCCN1Cc2nc3c(-c4cccc(OC)c4F)cccc3c(N)c2C1=O [9-amino-5-(2-fluoro-3-methoxyphenyl)-2-propyl-2,3-dihydro-1H-pyrrolo[3,4-b]quinolin-1-one]
5 | 0.12 | 0.0128 | CCCN1Cc2nc3c(-c4ccc(OC)cc4F)cccc3c(N)c2C1=O [9-amino-5-(2-fluoro-4-methoxyphenyl)-2-propyl-2,3-dihydro-1H-pyrrolo[3,4-b]quinolin-1-one]
6 | 0.55 | 0.024 | CCCN1Cc2nc3c(-c4cc(C(F)(F)F)ccc4F)cccc3c(N)c2C1=O [9-amino-5-(2-fluoro-5-(trifluoromethyl)phenyl)-2-propyl-2,3-dihydro-1H-pyrrolo[3,4-b]quinolin-1-one]

The remaining lines, values behind:

Row | SMILES | Relative Potentiation for GABAA1 [1] | Ki [2] [µM]
7 | CCCN1Cc2nc3c(-c4cnc(OC)nc4OC)c(F)ccc3c(N)c2C1=O [9-amino-5-(2,4-dimethoxypyrimidin-5-yl)-6-fluoro-2-propyl-2,3-dihydro-1H-pyrrolo[3,4-b]quinolin-1-one] | 0.22 | 0.00889
8 | COc1ccc(CN2Cc3nc4c(-c5cc(F)c(OC)cc5F)cccc4c(N)c3C2=O)cc1 [9-amino-5-(2,5-difluoro-4-methoxyphenyl)-2-(4-methoxybenzyl)-2,3-dihydro-1H-pyrrolo[3,4-b]quinolin-1-one] | 0.29 | 0.0484
9 | COc1cccc(CN2Cc3nc4c(-c5cc(OC)ccc5OC)cccc4c(N)c3C2=O)c1 [9-amino-5-(2,5-dimethoxyphenyl)-2-(3-methoxybenzyl)-2,3-dihydro-1H-pyrrolo[3,4-b]quinolin-1-one] | 0.25 | 0.0269
10 | CCCN1Cc2nc3c(-c4c(F)cc(OC)cc4F)cccc3c(N)c2C1=O [9-amino-5-(2,6-difluoro-4-methoxyphenyl)-2-propyl-2,3-dihydro-1H-pyrrolo[3,4-b]quinolin-1-one] | 0.16 | 0.0122
11 | CCCN1Cc2nc3c(-c4ccc(F)nc4F)cccc3c(N)c2C1=O [9-amino-5-(2,6-difluoropyridin-3-yl)-2-propyl-2,3-dihydro-1H-pyrrolo[3,4-b]quinolin-1-one] | 0.21 | 0.0753
12 | CCCN1Cc2nc3c(-c4cc(F)cnc4Cl)cccc3c(N)c2C1=O [9-amino-5-(2-chloro-5-fluoropyridin-3-yl)-2-propyl-2,3-dihydro-1H-pyrrolo[3,4-b]quinolin-1-one] | 0.38 | 0.0163
13 | CCCN1Cc2nc3c(-c4cc(OC)cnc4Cl)cccc3c(N)c2C1=O [9-amino-5-(2-chloro-5-methoxypyridin-3-yl)-2-propyl-2,3-dihydro-1H-pyrrolo[3,4-b]quinolin-1-one] | 0.45 | 0.00972
14 | CCCN1Cc2nc3c(-c4cccnc4OCC)cccc3c(N)c2C1=O [9-amino-5-(2-ethoxypyridin-3-yl)-2-propyl-2,3-dihydro-1H-pyrrolo[3,4-b]quinolin-1-one] | 0.56 | 0.015
